14 compounds from patent US8163724B2, “Glucocorticosteroids, processes for their preparation, pharmaceutical compositions containing them and their use in therapy” (AstraZeneca AB, priority 2007, dated 2012) can be followed below.

In the experiment the target is T1, recombinant human GR (Homo sapiens, UniProt P04150).
T1 construct: purchased Panvera/Invitrogen P2812 (kit P2893)
T1 sequence (P04150 1-777): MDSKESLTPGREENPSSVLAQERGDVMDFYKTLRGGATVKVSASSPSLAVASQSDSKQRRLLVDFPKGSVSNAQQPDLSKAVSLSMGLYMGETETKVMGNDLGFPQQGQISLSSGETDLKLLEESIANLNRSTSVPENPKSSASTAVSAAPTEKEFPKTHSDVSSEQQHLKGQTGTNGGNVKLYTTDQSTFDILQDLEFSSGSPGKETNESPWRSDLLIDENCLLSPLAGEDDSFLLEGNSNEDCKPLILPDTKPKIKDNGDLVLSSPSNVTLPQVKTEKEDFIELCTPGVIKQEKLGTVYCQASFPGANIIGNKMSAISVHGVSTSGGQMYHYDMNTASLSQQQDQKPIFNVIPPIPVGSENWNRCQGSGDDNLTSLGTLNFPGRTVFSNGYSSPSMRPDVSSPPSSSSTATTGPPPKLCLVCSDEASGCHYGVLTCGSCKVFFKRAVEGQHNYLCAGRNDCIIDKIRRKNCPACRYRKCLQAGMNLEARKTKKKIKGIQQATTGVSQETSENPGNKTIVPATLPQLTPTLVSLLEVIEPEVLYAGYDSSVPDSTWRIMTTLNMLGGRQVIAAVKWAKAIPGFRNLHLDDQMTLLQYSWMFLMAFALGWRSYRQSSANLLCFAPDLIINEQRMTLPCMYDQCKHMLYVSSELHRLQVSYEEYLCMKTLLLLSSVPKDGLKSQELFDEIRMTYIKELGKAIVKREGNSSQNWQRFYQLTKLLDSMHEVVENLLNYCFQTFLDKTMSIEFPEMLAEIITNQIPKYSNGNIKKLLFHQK
In words: Human Glucocorticoid Receptor (GR) Assay (fluorescence polarization, Panvera/Invitrogen kit). The class given is binding. Conditions: fluorescence polarization; GS Red tracer; 2 hours at room temperature; 100% control 10 μM Dexamethasone; read-out: Inhibition of GR binding, IC50. The essentials: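 Fluorescence polarization competition with recombinant GR and GS Red fluorescent ligand plus stabilizing peptide and DTT in potassium phosphate/sodium molybdate/EDTA buffer with DMSO. Incubated 2 hours at room temperature in the dark; 0% control DMSO, 100% control 10 μM dexamethasone.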
Background: Fluorescence polarisation rises when a labelled molecule tumbles more slowly, as on binding a larger partner.
Take `C[C@]12Cc3cnn(-c4ccc(F)cc4)c3C=C1CC[C@H]1[C@@H]3CC[C@](OC(=O)c4cocn4)(C(=O)SCC#N)[C@@]3(C)C[C@H](O)[C@@]12F` [Example 201, (1R,3aS,3bS,10aS,10bR,11S,12aS)-1-{[(Cyanomethyl)sulfanyl]-carbonyl}-10b-fluoro-7-(4-fluorophenyl)-11-hydroxy-10a,12a-dimethyl-1,2,3,3a,3b,4,5,7,10,10a,10b,11,12,12a-tetradecahydrocyclopenta[5,6]naphtho[1,2-f]indazol-1-yl 1,3-oxazole-4-carboxylate]: the IC50 (usually the point on the concentration scale where inhibition reaches its midpoint) worked out at 5.3 nM. Then `C[C@]12Cc3cnn(-c4ccc(F)cc4)c3C=C1CC[C@H]1[C@@H]3CC[C@](OC(=O)c4cocn4)(C(=O)SCF)[C@@]3(C)C[C@H](O)[C@@]12F` [Example 202, (1R,3aS,3bS,10aS,10bR,11S,12aS)-1-{[(Fluoromethyl)sulfanyl]carbonyl}-10b-fluoro-7-(4-fluorophenyl)-11-hydroxy-10a,12a-dimethyl-1,2,3,3a,3b,4,5,7,10,10a,10b,11,12,12a-tetradecahydrocyclopenta[5,6]naphtho[1,2-f]indazol-1-yl 1,3-oxazole-4-carboxylate], with 5.8 nM; and `CCC(=O)O[C@]1(C(=O)SCC#N)CC[C@H]2[C@@H]3CCC4=Cc5c(cnn5-c5ccc(F)nc5)C[C@]4(C)[C@@]3(F)[C@@H](O)C[C@@]21C` [Example 203, (1R,3aS,3bS,10aS,10bR,11S,12aS)-1-{[(Cyanomethyl)sulfanyl]carbonyl}-10b-fluoro-7-(6-fluoropyridin-3-yl)-11-hydroxy-10a,12a-dimethyl-1,2,3,3a,3b,4,5,7,10,10a,10b,11,12,12a-tetradecahydrocyclopenta[5,6]naphtho[1,2-f]indazol-1-yl propanoate], with 2.3 nM; and `CCC(=O)O[C@]1(C(=O)SCF)CC[C@H]2[C@@H]3CCC4=Cc5c(cnn5-c5ccc(F)nc5)C[C@]4(C)[C@@]3(F)[C@@H](O)C[C@@]21C` [Example 204, (1R,3aS,3bS,10aS,10bR,11S,12aS)-1-{[(Fluoromethyl)sulfanyl]carbonyl}-10b-fluoro-7-(6-fluoropyridin-3-yl)-11-hydroxy-10a,12a-dimethyl-1,2,3,3a,3b,4,5,7,10,10a,10b,11,12,12a-tetradecahydrocyclopenta[5,6]naphtho[1,2-f]indazol-1-yl propanoate], with 3.3 nM.

`COCC(=O)O[C@]1(C(=O)SCC#N)CC[C@H]2[C@@H]3CCC4=Cc5c(cnn5-c5ccc(F)nc5)C[C@]4(C)[C@@]3(F)[C@@H](O)C[C@@]21C` [Example 205, (1R,3aS,3bS,10aS,10bR,11S,12aS)-1-{[(Cyanomethyl)sulfanyl]carbonyl}-10b-fluoro-7-(6-fluoropyridin-3-yl)-11-hydroxy-10a,12a-dimethyl-1,2,3,3a,3b,4,5,7,10,10a,10b,11,12,12a-tetradecahydrocyclopenta[5,6]naphtho[1,2-f]indazol-1-yl methoxyacetate]: the IC50 came out at 1.4 nM. Then `COCC(=O)O[C@]1(C(=O)SCF)CC[C@H]2[C@@H]3CCC4=Cc5c(cnn5-c5ccc(F)nc5)C[C@]4(C)[C@@]3(F)[C@@H](O)C[C@@]21C` [Example 206, (1R,3aS,3bS,10aS,10bR,11S,12aS)-1-{[(Fluoromethyl)sulfanyl]carbonyl}-10b-fluoro-7-(6-fluoropyridin-3-yl)-11-hydroxyl-1,2,3,3a,3b,4,5,7,10,10a,10b,11,12,12a-tetradecahydrocyclopenta[5,6]naphtho[1,2-f]indazol-1-yl methoxyacetate], with 2.5 nM; and `C[C@]12Cc3cnn(-c4ccc(F)nc4)c3C=C1CC[C@H]1[C@@H]3CC[C@](OC(=O)C4CC4)(C(=O)SCC#N)[C@@]3(C)C[C@H](O)[C@@]12F` [Example 207, (1R,3aS,3bS,10aS,10bR,11S,12aS)-1-{[(Cyanomethyl)sulfanyl]carbonyl}-10b-fluoro-7-(6-fluoropyridin-3-yl)-11-hydroxy-10a,12a-dimethyl-1,2,3,3a,3b,4,5,7,10,10a,10b,11,12,12a-tetradecahydrocyclopenta[5,6]naphtho[1,2-f]indazol-1-yl cyclopropanecarboxylate], with 3.3 nM; and `C[C@]12Cc3cnn(-c4ccc(F)nc4)c3C=C1CC[C@H]1[C@@H]3CC[C@](OC(=O)C4CC4)(C(=O)SCF)[C@@]3(C)C[C@H](O)[C@@]12F` [Example 208, (1R,3aS,3bS,10aS,10bR,11S,12aS)-1-{[(Fluoromethyl)sulfanyl]carbonyl}-10b-fluoro-7-(6-fluoropyridin-3-yl)-11-hydroxy-10a,12a-dimethyl-1,2,3,3a,3b,4,5,7,10,10a,10b,11,12,12a-tetradecahydrocyclopenta[5,6]naphtho[1,2-f]indazol-1-yl cyclopropanecarboxylate], with 3.4 nM. For `C[C@]12Cc3cnn(-c4ccc(F)nc4)c3C=C1CC[C@H]1[C@@H]3CC[C@](OC(=O)c4cocn4)(C(=O)SCC#N)[C@@]3(C)C[C@H](O)[C@@]12F` [Example 209, (1R,3aS,3bS,10aS,1.0bR,11S,12aS)-1-{[(Cyanomethyl)sulfanyl]carbonyl}-10b-fluoro-7-(6-fluoropyridin-3-yl)-11-hydroxy-10a,12a-dimethyl-1,2,3,3a,3b,4,5,7,10,10a,10b,11,12,12a-tetradecahydrocyclopenta[5,6]naphtho[1,2-f]indazol-1-yl 1,3-oxazole-4-carboxylate], the IC50 is 3.6 nM. With `C[C@]12Cc3cnn(-c4ccc(F)nc4)c3C=C1CC[C@H]1[C@@H]3CC[C@](OC(=O)c4cocn4)(C(=O)SCF)[C@@]3(C)C[C@H](O)[C@@]12F` [Example 210, (1R,3aS,3bS,10aS,10bR,11S,12aS)-1-{[(Fluoromethyl)sulfanyl]carbonyl}-10b-fluoro-7-(6-fluoropyridin-3-yl)-11-hydroxy-10a,12a-dimethyl-1,2,3,3a,3b,4,5,7,10,10a,10b,11,12,12a-tetradecahydrocyclopenta[5,6]naphtho[1,2-f]indazol-1-yl 1,3-oxazole-4-carboxylate], the concentration for half-maximal inhibition (IC50) was 2 nM. The result for `C[C@]12Cc3cnn(-c4ccc(F)nc4)c3C=C1CC[C@H]1[C@@H]3CC[C@](OC(=O)c4ccco4)(C(=O)SCC#N)[C@@]3(C)C[C@H](O)[C@@]12F` [Example 211, (1R,3aS,3bS,10aS,10bR,11S,12aS)-1-{[(Cyanomethyl)sulfanyl]carbonyl}-10b-fluoro-7-(6-fluoropyridin-3-yl)-11-hydroxy-10a,12a-dimethyl-1,2,3,3a,3b,4,5,7,10,10a,10b,11,12,12a-tetradecahydrocyclopenta[5,6]naphtho[1,2-f]indazol-1-yl furan-2-carboxylate] reads 2.2 nM. With `C[C@]12Cc3cnn(-c4ccc(F)nc4)c3C=C1CC[C@H]1[C@@H]3CC[C@](OC(=O)c4ccco4)(C(=O)SCF)[C@@]3(C)C[C@H](O)[C@@]12F` [Example 212, (1R,3aS,3bS,10aS,10bR,11S,12aS)-1-{[(Fluoromethyl)sulfanyl]carbonyl}-10b-fluoro-7-(6-fluoropyridin-3-yl)-11-hydroxy-10a,12a-dimethyl-1,2,3,3a,3b,4,5,7,10a,10b,11,12,12a-tetradecahydrocyclopenta[5,6]naphtho[1,2-f]indazol-1-yl furan-2-carboxylate], the half-inhibitory concentration (IC50) came out at 2.1 nM. Turning to `CCC(=O)O[C@]1(C(=O)SCC#N)CC[C@H]2[C@@H]3C[C@H](C)C4=Cc5c(cnn5-c5ccc(F)cc5)C[C@]4(C)[C@H]3[C@@H](O)C[C@@]21C` [Example 213, (1R,3aS,3bS,5S,10aR,10bS,11S,12aS)-1-{[(Cyanomethyl)sulfanyl]carbonyl}-7-(4-fluorophenyl)-11-hydroxy-5,10a,12a-trimethyl-1,2,3,3a,3b,4,5,7,10,10a,10b,11,12,12a-tetradecahydrocyclopenta[5,6]naphtho[1,2-f]indazol-1-yl propanoate], the IC50 amounted to 11 nM. As for `CCC(=O)O[C@]1(C(=O)SCF)CC[C@H]2[C@@H]3C[C@H](C)C4=Cc5c(cnn5-c5ccc(F)cc5)C[C@]4(C)[C@H]3[C@@H](O)C[C@@]21C` [Example 214, (1R,3aS,3bS,5S,10aR,10bS,11S,12aS)-1-{[(Fluoromethyl)sulfanyl]carbonyl}-7-(4-fluorophenyl)-11-hydroxy-5,10a,12a-trimethyl-1,2,3,3a,3b,4,5,7,10,10a,10b,11,12,12a-tetradecahydrocyclopenta[5,6]naphtho[1,2-f]indazol-1-yl propanoate], the IC50 was 49 nM.
